ChEMBL document CHEMBL1909294, “Translating clinical findings into knowledge in drug safety evaluation--drug induced liver injury prediction system (DILIps)” (PLoS Comput Biol, 2011)

Columns and labels:
[1] = system: Hepatotoxicity;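 as to HepSE bilirubinemia: bilirubinemia hepatic side effect score drawn from the DILIps training data, a prediction system for drug-induced liver injury; call rule not given here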;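 as to HepSE cholecystitis: Cholecystitis-related hepatic side effect score drawn from the DILIps (drug-induced liver injury prediction) training data set; call rule not given here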;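 as to HepSE cholelithiasis: hepatic side effect score for cholelithiasis, drawn from the DILIps training data for predicting drug-induced liver injury; call rule not given here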;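 as to HepSE cirrhosis: cirrhosis hepatic side effect score taken from the DILIps (drug-induced liver injury prediction) training set; call rule not given here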;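 as to HepSE elevated liver function tests: hepatic side effect score for raised liver function tests, as recorded in the DILIps training set used for predicting drug-induced liver injury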; as to HepSE hepatic failure: call rule not given here;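 as to HepSE hepatomegaly: hepatic side effect score for hepatomegaly, taken from the training set of the DILIps drug-induced liver injury prediction system; call rule not given here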
[2] = system: Hepatotoxicity; remark: listed apart in the source;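 as to HepSE bilirubinemia: bilirubinemia hepatic side effect score drawn from the DILIps training data, a prediction system for drug-induced liver injury; call rule not given here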;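 as to HepSE cholecystitis: Cholecystitis-related hepatic side effect score drawn from the DILIps (drug-induced liver injury prediction) training data set; call rule not given here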;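 as to HepSE cholelithiasis: hepatic side effect score for cholelithiasis, drawn from the DILIps training data for predicting drug-induced liver injury; call rule not given here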;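 as to HepSE cirrhosis: cirrhosis hepatic side effect score taken from the DILIps (drug-induced liver injury prediction) training set; call rule not given here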;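 as to HepSE elevated liver function tests: hepatic side effect score for raised liver function tests, as recorded in the DILIps training set used for predicting drug-induced liver injury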; as to HepSE hepatic failure: call rule not given here
[3] = system: Hepatotoxicity; remark: listed apart in the source;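 as to HepSE bilirubinemia: bilirubinemia hepatic side effect score drawn from the DILIps training data, a prediction system for drug-induced liver injury; call rule not given here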;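 as to HepSE cholecystitis: Cholecystitis-related hepatic side effect score drawn from the DILIps (drug-induced liver injury prediction) training data set; call rule not given here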;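 as to HepSE cholelithiasis: hepatic side effect score for cholelithiasis, drawn from the DILIps training data for predicting drug-induced liver injury; call rule not given here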;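 as to HepSE cirrhosis: cirrhosis hepatic side effect score taken from the DILIps (drug-induced liver injury prediction) training set; call rule not given here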;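 as to HepSE elevated liver function tests: hepatic side effect score for raised liver function tests, as recorded in the DILIps training set used for predicting drug-induced liver injury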; as to HepSE hepatic failure: call rule not given here
[4] = system: Hepatotoxicity; remark: listed apart in the source;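 as to HepSE bilirubinemia: bilirubinemia hepatic side effect score drawn from the DILIps training data, a prediction system for drug-induced liver injury; call rule not given here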;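 as to HepSE cholecystitis: Cholecystitis-related hepatic side effect score drawn from the DILIps (drug-induced liver injury prediction) training data set; call rule not given here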;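 as to HepSE cholelithiasis: hepatic side effect score for cholelithiasis, drawn from the DILIps training data for predicting drug-induced liver injury; call rule not given here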;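 as to HepSE cirrhosis: cirrhosis hepatic side effect score taken from the DILIps (drug-induced liver injury prediction) training set; call rule not given here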;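 as to HepSE elevated liver function tests: hepatic side effect score for raised liver function tests, as recorded in the DILIps training set used for predicting drug-induced liver injury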; as to HepSE hepatic failure: call rule not given here
[5] = system: Hepatotoxicity; remark: listed apart in the source; as to HepSE hepatic failure: call rule not given here
[6] = system: Hepatotoxicity; remark: listed apart in the source; as to HepSE hepatic failure: call rule not given here
[7] = system: Hepatotoxicity; remark: listed apart in the source
[8] = system: Hepatotoxicity; remark: listed apart in the source
[9] = system: Hepatotoxicity; remark: listed apart in the source
[10] = system: Hepatotoxicity; remark: listed apart in the source
[11] = system: Hepatotoxicity; remark: listed apart in the source
[12] = system: Hepatotoxicity; remark: listed apart in the source
[13] = system: Hepatotoxicity; remark: listed apart in the source
[14] = system: Hepatotoxicity; remark: listed apart in the source

Question: `c1cnc2cc3c(cc2n1)[C@@H]1CNC[C@H]3C1` [VARENICLINE] was tested. Which HepSE_bilirubinemia [1] did it give?
Answer: 0

Question: And the HepSE_cholecystitis [2]?
Answer: 0

Question: And the HepSE_cholelithiasis [3]?
Answer: 0

Question: What about the HepSE_cirrhosis [4] of the same compound?
Answer: 0

Question: What about the “HepSE_elevated liver function tests” value [5] of the same compound?
Answer: 0

Question: What about the HepSE_hepatic failure [6] of the same compound?
Answer: 0

Question: And the HepSE_hepatic necrosis [7]?
Answer: 0

Question: What about the HepSE_hepatitis [8] of the same compound?
Answer: 0

Question: And the HepSE_hepatomegaly [9]?
Answer: 0

Question: And the HepSE_jaundice [10]?
Answer: 0

Question: And the HepSE_liver disease [11]?
Answer: 0

Question: What about the HepSE_liver fatty [12] of the same compound?
Answer: 0

Question: And the “HepSE_liver function tests abnormal” value [13]?
Answer: 1

Question: And the “HepSE_Combined Scores” value [14]?
Answer: 1

Question: Which results are given for `CC(=O)O[C@H]1C[C@@H]2CC[C@@H]3[C@H](CC[C@@]4(C)[C@H]3C[C@H]([N+]3(C)CCCCC3)[C@@H]4OC(C)=O)[C@@]2(C)C[C@@H]1N1CCCCC1` [VECURONIUM]?
Answer: HepSE_bilirubinemia [1]: 0; HepSE_cholecystitis [2]: 0; HepSE_cholelithiasis [3]: 0; HepSE_cirrhosis [4]: 0; HepSE_elevated liver function tests [5]: 0; HepSE_hepatic failure [6]: 0; HepSE_hepatic necrosis [7]: 0; HepSE_hepatitis [8]: 0; HepSE_hepatomegaly [9]: 0; HepSE_jaundice [10]: 0; HepSE_liver disease [11]: 0; HepSE_liver fatty [12]: 0; HepSE_liver function tests abnormal [13]: 0; HepSE_Combined Scores [14]: 0

Question: Which HepSE_bilirubinemia [1] does the source give for `COc1ccc(C(CN(C)C)C2(O)CCCCC2)cc1` (configuration not stated) [VENLAFAXINE] here?
Answer: 1

Question: And the HepSE_cholecystitis [2]?
Answer: 1

Question: What about the HepSE_cholelithiasis [3] of the same compound?
Answer: 1

Question: What about the HepSE_cirrhosis [4] of the same compound?
Answer: 1

Question: And the “HepSE_elevated liver function tests” value [5]?
Answer: 0

Question: What about the HepSE_hepatic failure [6] of the same compound?
Answer: 0

Question: What about the HepSE_hepatic necrosis [7] of the same compound?
Answer: 0

Question: What about the HepSE_hepatitis [8] of the same compound?
Answer: 1

Question: What about the HepSE_hepatomegaly [9] of the same compound?
Answer: 0

Question: And the HepSE_jaundice [10]?
Answer: 1

Question: And the HepSE_liver disease [11]?
Answer: 0

Question: And the HepSE_liver fatty [12]?
Answer: 1

Question: And the “HepSE_liver function tests abnormal” value [13]?
Answer: 0

Question: What about the “HepSE_Combined Scores” value [14] of the same compound?
Answer: 7

Question: For `C=CC(N)CCC(=O)O` (configuration not stated) [VIGABATRIN], which HepSE_bilirubinemia [1] is on record?
Answer: 0

Question: And the HepSE_cholecystitis [2]?
Answer: 0

Question: And the HepSE_cholelithiasis [3]?
Answer: 0

Question: And the HepSE_cirrhosis [4]?
Answer: 0

Question: What about the “HepSE_elevated liver function tests” value [5] of the same compound?
Answer: 0

Question: And the HepSE_hepatic failure [6]?
Answer: 0

Question: What about the HepSE_hepatic necrosis [7] of the same compound?
Answer: 0

Question: What about the HepSE_hepatitis [8] of the same compound?
Answer: 0

Question: And the HepSE_hepatomegaly [9]?
Answer: 0

Question: And the HepSE_jaundice [10]?
Answer: 0

Question: And the HepSE_liver disease [11]?
Answer: 0

Question: And the HepSE_liver fatty [12]?
Answer: 0

Question: What about the “HepSE_liver function tests abnormal” value [13] of the same compound?
Answer: 0

Question: And the “HepSE_Combined Scores” value [14]?
Answer: 0

Question: What does the source list for `CC[C@]1(O)C[C@@H]2CN(CCc3c([nH]c4ccccc34)[C@@](C(=O)OC)(c3cc4c(cc3OC)N(C)[C@H]3[C@@](O)(C(=O)OC)[C@H](OC(C)=O)[C@]5(CC)C=CCN6CC[C@]43[C@@H]65)C2)C1` [VINBLASTINE]?
Answer: HepSE_bilirubinemia [1]: 0; HepSE_cholecystitis [2]: 0; HepSE_cholelithiasis [3]: 0; HepSE_cirrhosis [4]: 0; HepSE_elevated liver function tests [5]: 0; HepSE_hepatic failure [6]: 0; HepSE_hepatic necrosis [7]: 0; HepSE_hepatitis [8]: 0; HepSE_hepatomegaly [9]: 0; HepSE_jaundice [10]: 0; HepSE_liver disease [11]: 0; HepSE_liver fatty [12]: 0; HepSE_liver function tests abnormal [13]: 0; HepSE_Combined Scores [14]: 0

Question: What does the source list for `CC[C@]1(O)C[C@H]2CN(CCc3c([nH]c4ccccc34)[C@@](C(=O)OC)(c3cc4c(cc3OC)N(C=O)[C@H]3[C@@](O)(C(=O)OC)[C@H](OC(C)=O)[C@]5(CC)C=CCN6CC[C@]43[C@@H]65)C2)C1` [VINCRISTINE]?
Answer: HepSE_bilirubinemia [1]: 0; HepSE_cholecystitis [2]: 0; HepSE_cholelithiasis [3]: 0; HepSE_cirrhosis [4]: 0; HepSE_elevated liver function tests [5]: 0; HepSE_hepatic failure [6]: 0; HepSE_hepatic necrosis [7]: 0; HepSE_hepatitis [8]: 0; HepSE_hepatomegaly [9]: 0; HepSE_jaundice [10]: 0; HepSE_liver disease [11]: 0; HepSE_liver fatty [12]: 0; HepSE_liver function tests abnormal [13]: 0; HepSE_Combined Scores [14]: 0

Question: Which results are given for `CCC1=C[C@@H]2CN(C1)Cc1c([nH]c3ccccc13)[C@@](C(=O)OC)(c1cc3c(cc1OC)N(C)[C@H]1[C@@](O)(C(=O)OC)[C@H](OC(C)=O)[C@]4(CC)C=CCN5CC[C@]31[C@@H]54)C2` [VINORELBINE]?
Answer: HepSE_bilirubinemia [1]: 0; HepSE_cholecystitis [2]: 0; HepSE_cholelithiasis [3]: 0; HepSE_cirrhosis [4]: 0; HepSE_elevated liver function tests [5]: 0; HepSE_hepatic failure [6]: 0; HepSE_hepatic necrosis [7]: 0; HepSE_hepatitis [8]: 0; HepSE_hepatomegaly [9]: 0; HepSE_jaundice [10]: 0; HepSE_liver disease [11]: 0; HepSE_liver fatty [12]: 0; HepSE_liver function tests abnormal [13]: 0; HepSE_Combined Scores [14]: 0

Question: `C[C@@H](c1ncncc1F)[C@](O)(Cn1cncn1)c1ccc(F)cc1F` [VORICONAZOLE] was tested. Which HepSE_bilirubinemia [1] did it give?
Answer: 1

Question: And the HepSE_cholecystitis [2]?
Answer: 1

Question: What about the HepSE_cholelithiasis [3] of the same compound?
Answer: 1

Question: What about the HepSE_cirrhosis [4] of the same compound?
Answer: 0

Question: What about the “HepSE_elevated liver function tests” value [5] of the same compound?
Answer: 1

Question: What about the HepSE_hepatic failure [6] of the same compound?
Answer: 1

Question: What about the HepSE_hepatic necrosis [7] of the same compound?
Answer: 0

Question: What about the HepSE_hepatitis [8] of the same compound?
Answer: 1

Question: And the HepSE_hepatomegaly [9]?
Answer: 1

Question: What about the HepSE_jaundice [10] of the same compound?
Answer: 1

Question: And the HepSE_liver disease [11]?
Answer: 1

Question: And the HepSE_liver fatty [12]?
Answer: 0

Question: What about the “HepSE_liver function tests abnormal” value [13] of the same compound?
Answer: 1

Question: And the “HepSE_Combined Scores” value [14]?
Answer: 10
